# Measurements reported in patent US20250179061A1 (SIRONAX LTD., priority 2022, published 2025).
# Tested on: HT-29 cells
# Experiment: HT-29 necroptosis cell viability assay (TNF-α/SMAC mimetic/zVAD-FMK, CellTiter-Glo)
# Assay type: cell-based
# Conditions: Homo sapiens, HT-29, 20 h, read-out: Activity
# Outline: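 Necroptosis was triggered by TNF-α (10 ng/ml), SMAC mimetic (6 μM) and zVAD-FMK (10 μM) in serum-free medium during 20 h compound exposure (10 concentrations, threefold steps) of HT-29 cells. IC50 from duplicate dose-responses uses CellTiter-Glo ATP luminescence as viability read-out.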
row,Compound,IC50 [µM]
1,"COC(=O)c1ncc(Oc2ccc(-n3ncn(Cc4c(F)cccc4F)c3=O)cc2F)s1 [Example 105, methyl 5-(4-(4-(2,6-difluorobenzyl)-5-oxo-4,5-dihydro-1H-1,2,4-triazol-1-yl)-2-fluorophenoxy)thiazole-2-carboxylate]",0.1 to 1

# Same assay, conditions: Homo sapiens, HT-29, HT-29 necroptosis cell viability assay; class symbols for IC50; read-out: Activity
row,Compound,IC50 [µM]
1,"Cc1nc(C2CC(C(N)=O)C2)sc1Oc1ccc(-n2ncn(Cc3c(F)cccc3F)c2=O)cc1F (stereo not shown) [Example 113, 3-(5-(4-(4-(2,6-difluorobenzyl)-5-oxo-4,5-dihydro-1H-1,2,4-triazol-1-yl)-2-fluorophenoxy)-4-methylthiazol-2-yl)cyclobutane-1-carboxamide]",< 0.1
2,"Cc1nc(C2(O)COC2)sc1Oc1ccc(-n2nc3n(c2=O)[C@H](c2ccccc2)CC3)cc1F [Example 114, (S)-2-(3-fluoro-4-((2-(3-hydroxyoxetan-3-yl)-4-methylthiazol-5-yl)oxy)phenyl)-5-phenyl-2,5,6,7-tetrahydro-3H-pyrrolo[2,1-c][1,2,4]triazol-3-one]",< 0.1
3,"Cc1nc(Oc2ccc(-n3ncn(Cc4c(F)cccc4F)c3=O)c(F)c2)n(C)c1C(N)=O [Example 115, 2-(4-(4-(2,6-difluorobenzyl)-5-oxo-4,5-dihydro-1H-1,2,4-triazol-1-yl)-3-fluorophenoxy)-1,4-dimethyl-1H-imidazole-5-carboxamide]",1 to 10

# Same assay, conditions: Homo sapiens; HT-29 cells stimulated with TNF-α (10 ng/ml), SMAC mimetic (6 μM) and zVAD-FMK (10 μM); 20 hours; CellTiter-Glo ATP luminescence; geometric mean IC50 from 10 points; read-out: Activity
row,Compound,IC50 [µM]
1,"CCOC1CN(c2cc(Oc3ccc(-n4ncn(Cc5c(F)cccc5F)c4=O)cc3)c(C)s2)C1 [Example 85, 4-(2,6-difluorobenzyl)-2-(4-((5-(3-ethoxyazetidin-1-yl)-2-methylthiophen-3-yl)oxy)phenyl)-2,4-dihydro-3H-1,2,4-triazol-3-one]",> 10
2,"Cc1nc(C#N)sc1Oc1ccc(-n2ncn(Cc3c(F)cccc3F)c2=O)cc1Cl [Example 86, 5-(2-chloro-4-(4-(2,6-difluorobenzyl)-5-oxo-4,5-dihydro-1H-1,2,4-triazol-1-yl)phenoxy)-4-methylthiazole-2-carbonitrile]",< 0.1
3,"Cc1nc(C#N)sc1Oc1ccc(-n2ncn(Cc3c(F)cccc3F)c2=O)cc1 [Example 87, 5-(4-(4-(2,6-difluorobenzyl)-5-oxo-4,5-dihydro-1H-1,2,4-triazol-1-yl)phenoxy)-4-methylthiazole-2-carbonitrile]",< 0.1
4,"Cc1nc(C(N)=O)sc1Oc1ccc(-n2ncn(Cc3c(F)cccc3F)c2=O)cc1Cl [Example 88, 5-(2-chloro-4-(4-(2,6-difluorobenzyl)-5-oxo-4,5-dihydro-1H-1,2,4-triazol-1-yl)phenoxy)-4-methylthiazole-2-carboxamide]",< 0.1
5,"CC(=O)Nc1nc(C)c(Oc2ccc(-n3ncn(Cc4c(F)cccc4F)c3=O)cc2F)s1 [Example 89, N-(5-(4-(4-(2,6-difluorobenzyl)-5-oxo-4,5-dihydro-1H-1,2,4-triazol-1-yl)-2-fluorophenoxy)-4-methylthiazol-2-yl)acetamide]",< 0.1
6,"Nc1ncc(Oc2ccc(-n3ncn(Cc4c(F)cccc4F)c3=O)cc2)s1 [Example 90, 2-(4-((2-aminothiazol-5-yl)oxy)phenyl)-4-(2,6-difluorobenzyl)-2,4-dihydro-3H-1,2,4-triazol-3-one]",0.1 to 1
7,"Cc1nc(N)sc1Oc1ccc(-n2ncn(Cc3c(F)cccc3F)c2=O)cc1 [Example 91, 2-(4-((2-amino-4-methylthiazol-5-yl)oxy)phenyl)-4-(2,6-difluorobenzyl)-2,4-dihydro-3H-1,2,4-triazol-3-one]",< 0.1
8,"COC(=O)c1nc(Oc2ccc(-n3ncn(Cc4c(F)cccc4F)c3=O)cc2)sc1C [Example 92, methyl 2-(4-(4-(2,6-difluorobenzyl)-5-oxo-4,5-dihydro-1H-1,2,4-triazol-1-yl)phenoxy)-5-methylthiazole-4-carboxylate]",0.1 to 1
9,"CCOC(=O)c1scnc1Oc1ccc(-n2ncn(Cc3c(F)cccc3F)c2=O)cc1F [Example 93, ethyl 4-(4-(4-(2,6-difluorobenzyl)-5-oxo-4,5-dihydro-1H-1,2,4-triazol-1-yl)-2-fluorophenoxy)thiazole-5-carboxylate]",0.1 to 1
10,"Cn1ncnc1Oc1ccc(-n2ncn(Cc3c(F)cccc3F)c2=O)cc1 [Example 94, 4-(2,6-difluorobenzyl)-2-(4-((1-methyl-1H-1,2,4-triazol-5-yl)oxy)phenyl)-2,4-dihydro-3H-1,2,4-triazol-3-one]",1 to 10
11,"Cn1ncc([N+](=O)[O-])c1Oc1ccc(-n2ncn(Cc3c(F)cccc3F)c2=O)cc1 [Example 95, 4-(2,6-difluorobenzyl)-2-(4-((1-methyl-4-nitro-1H-pyrazol-5-yl)oxy)phenyl)-2,4-dihydro-3H-1,2,4-triazol-3-one]",0.1 to 1
12,"O=c1n(Cc2c(F)cccc2F)cnn1-c1ccc(Oc2nc(CO)cs2)cc1 [Example 96, 4-(2,6-difluorobenzyl)-2-(4-((4-(hydroxymethyl)thiazol-2-yl)oxy)phenyl)-2,4-dihydro-3H-1,2,4-triazol-3-one]",0.1 to 1
13,"Cc1nc(C)c(Oc2ccc(-n3ncn(Cc4c(F)cccc4F)c3=O)cc2)s1 [Example 97, 4-(2,6-difluorobenzyl)-2-(4-((2,4-dimethylthiazol-5-yl)oxy)phenyl)-2,4-dihydro-3H-1,2,4-triazol-3-one]",< 0.1
14,"Cc1csc(COc2ccc(-n3ncn(Cc4c(F)cccc4F)c3=O)cc2)n1 [Example 98, 4-(2,6-difluorobenzyl)-2-(4-((4-methylthiazol-2-yl)methoxy)phenyl)-2,4-dihydro-3H-1,2,4-triazol-3-one]",0.1 to 1
15,"Cc1ncc(Oc2ccc(-n3ncn(Cc4c(F)cccc4F)c3=O)cc2)s1 [Example 99, 4-(2,6-difluorobenzyl)-2-(4-((2-methylthiazol-5-yl)oxy)phenyl)-2,4-dihydro-3H-1,2,4-triazol-3-one]",< 0.1
16,"Cc1nc(C(N)=O)c(Oc2ccc(-n3ncn(Cc4c(F)cccc4F)c3=O)cc2F)s1 [Example 100, 5-(4-(4-(2,6-difluorobenzyl)-5-oxo-4,5-dihydro-1H-1,2,4-triazol-1-yl)-2-fluorophenoxy)-2-methylthiazole-4-carboxamide]",0.1 to 1
17,"NC(=O)c1scnc1Oc1ccc(-n2ncn(Cc3c(F)cccc3F)c2=O)cc1F [Example 101, 4-(4-(4-(2,6-difluorobenzyl)-5-oxo-4,5-dihydro-1H-1,2,4-triazol-1-yl)-2-fluorophenoxy)thiazole-5-carboxamide]",0.1 to 1
18,"Cc1nc(C(N)=O)cn1Cc1ccc(-n2nc3n(c2=O)C(c2ccccc2)CC3)cc1F (stereo not shown) [Example 102, 1-(2-fluoro-4-(3-oxo-5-phenyl-6,7-dihydro-3H-pyrrolo[2,1-c][1,2,4]triazol-2(5H)-yl)benzyl)-2-methyl-1H-imidazole-4-carboxamide]",< 0.1
19,"Cc1nc(C(N)=O)cn1Cc1ccc(-n2ncn(Cc3c(F)cccc3F)c2=O)cc1F [Example 103, 1-(4-(4-(2,6-difluorobenzyl)-5-oxo-4,5-dihydro-1H-1,2,4-triazol-1-yl)-2-fluorobenzyl)-2-methyl-1H-imidazole-4-carboxamide]",0.1 to 1
20,"Cc1ncc(C(N)=O)n1Cc1ccc(-n2ncn(Cc3c(F)cccc3F)c2=O)cc1F [Example 104, 1-(4-(4-(2,6-difluorobenzyl)-5-oxo-4,5-dihydro-1H-1,2,4-triazol-1-yl)-2-fluorobenzyl)-2-methyl-1H-imidazole-5-carboxamide]",< 0.1
21,"COC(=O)c1nc(C)c(Oc2ccc(-n3ncn(Cc4c(F)cccc4C#N)c3=O)cc2F)s1 [Example 106, methyl 5-(4-(4-(2-cyano-6-fluorobenzyl)-5-oxo-4,5-dihydro-1H-1,2,4-triazol-1-yl)-2-fluorophenoxy)-4-methylthiazole-2-carboxylate]",< 0.1
22,"COC(=O)c1nc(C)c(Oc2ccc(-n3ncn(Cc4ccccc4F)c3=O)cc2F)s1 [Example 107, methyl 5-(2-fluoro-4-(4-(2-fluorobenzyl)-5-oxo-4,5-dihydro-1H-1,2,4-triazol-1-yl)phenoxy)-4-methylthiazole-2-carboxylate]",< 0.1
23,"COC(=O)c1nc(C)c(Oc2ccc(-n3ncn(Cc4cc(F)ccc4F)c3=O)cc2F)s1 [Example 108, methyl 5-(4-(4-(2,5-difluorobenzyl)-5-oxo-4,5-dihydro-1H-1,2,4-triazol-1-yl)-2-fluorophenoxy)-4-methylthiazole-2-carboxylate]",< 0.1
24,"Cc1nc(C2(F)CC(N)C2)sc1Oc1ccc(-n2ncn(Cc3c(F)cccc3F)c2=O)cc1F (stereo not shown) [Example 109, 2-(4-((2-(3-amino-1-fluorocyclobutyl)-4-methylthiazol-5-yl)oxy)-3-fluorophenyl)-4-(2,6-difluorobenzyl)-2,4-dihydro-3H-1,2,4-triazol-3-one]",< 0.1
25,"Cc1nc(C2(F)CC(O)C2)sc1Oc1ccc(-n2ncn(Cc3c(F)cccc3F)c2=O)cc1F (stereo not shown) [Example 110, 4-(2,6-difluorobenzyl)-2-(3-fluoro-4-((2-(1-fluoro-3-hydroxycyclobutyl)-4-methylthiazol-5-yl)oxy)phenyl)-2,4-dihydro-3H-1,2,4-triazol-3-one]",< 0.1
26,"Cc1nc(C2(F)CC(OCc3ccccc3)C2)sc1Oc1ccc(-n2ncn(Cc3c(F)cccc3F)c2=O)cc1F (stereo not shown) [Example 111, 2-(4-((2-(3-(benzyloxy)-1-fluorocyclobutyl)-4-methylthiazol-5-yl)oxy)-3-fluorophenyl)-4-(2,6-difluorobenzyl)-2,4-dihydro-3H-1,2,4-triazol-3-one]",< 0.1
27,"Cc1nc(C2(O)CC(OCc3ccccc3)C2)sc1Oc1ccc(-n2ncn(Cc3c(F)cccc3F)c2=O)cc1F (stereo not shown) [Example 112, 2-(4-((2-(3-(benzyloxy)-1-hydroxycyclobutyl)-4-methylthiazol-5-yl)oxy)-3-fluorophenyl)-4-(2,6-difluorobenzyl)-2,4-dihydro-3H-1,2,4-triazol-3-one]",0.1 to 1
